Test system: MCF7
Experiment: Cytotoxicity against human MCF7 cells assessed as inhibition of cell growth at 10 uM after 96 hrs by Cell Titer 96 Aqueous One solution Cell proliferation assay relative to control
Format: functional
Conditions: MCF7, 96 h, read-out: GI

Compound `C[C@]12CC[C@@H]3c4ccc(O)cc4CC[C@H]3[C@@H]1CC[C@@]2(O)Cc1ccccc1` has an inhibition of growth at 10 µM of 51%.
